Test results taken from patent US5100881A (priority 1989, dated 1992).

What was measured:
L1210 cells = test: cells; format: cell-based; settings: Mus musculus, L1210, 48 h, read-out: IC50 (concentration which 50% inhibits the proliferation of the control cells)
P 388 leukemia = tested on: P 388 leukemia; set-up: species or system mice; settings: mouse, in vivo

SMILES | IC50 (L1210 cells) [nM] | SURVIVORS 30 days (P 388 leukemia) | SURVIVORS 60 days (P 388 leukemia) | T/C % (mean survival time test group over untreated control group) (P 388 leukemia) [%]
CC[C@]1(O)C[C@H]2CN(CCc3c([nH]c4ccccc34)[C@@](C(=O)OC)(c3cc4c(cc3OC)N(C=O)[C@H]3[C@@](O)(C(=O)OC)[C@H](OC(C)=O)[C@]5(CC)C=CCN6CC[C@]43[C@@H]65)C2)C1 [Vincristine, vincristine] | 4.2 ± 0.7 | 0/6 | 0/6 | 192
CC[C@]1(O)C[C@@H]2CN(CCc3c([nH]c4ccccc34)[C@@](C(=O)OC)(c3cc4c(cc3OC)N(C)[C@H]3[C@@](O)(C(=O)OC)[C@H](OC(C)=O)[C@]5(CC)C=CCN6CC[C@]43[C@@H]65)C2)C1 [Vinblastine, vinblastine] | 2.3 ± 0.5 | 1/6 | 1/6 | 245
